According to article PMC3445454, “Broad and Cross-Clade CD4^+ T-Cell Responses Elicited by a DNA Vaccine Encoding Highly Conserved and Promiscuous HIV-1 M-Group Consensus Peptides” (PLoS ONE, 2012):
Changes are numbered by the printed parent chain. pIC50: −log10 of the molar value. Read-outs that look alike come from different tables or passages of the source. Ends that are not written are not given here.

Legend:
Experiment in all cases: biochemical
Format in all cases: binding
[1] = target: HLA-DR DRB1*11:01 (Homo sapiens, UniProt P01903+P01911, A100R/A169T/A87E/I96F/K41T/L162R/M171V/P40S/Q125H/Q178H/Q39Y/Q99D/R42S/S66Y/T262R/V115G/W38E); details: for IC50: read-out: Binding capacity/IC50 (nM) DRB1*11:01
[2] = target: HLA-DR DRB3*01:01 (Homo sapiens, UniProt P01903+P79483); details: for IC50: read-out: Binding capacity/IC50 (nM) DRB3*01:01
[3] = target: HLA-DR DRB1*12:01 (Homo sapiens, UniProt P01903+P01911, A100R/A169T/D57E/D86V/F55L/H45Y/K41T/L162R/M171V/P40S/Q125H/Q178H/Q39Y/Q99D/R42G/S66L/T262R/V114A/V67L/W38E/Y59H/Y61H/Y89S); details: for IC50: read-out: Binding capacity/IC50 (nM) DRB1*12:01
[4] = target: HLA-DR DRB1*04:05 (Homo sapiens, UniProt P01903+P01911, A100R/A169T/D86S/F76Y/I96L/K127E/L162R/M171V/N62H/P40V/Q125Y/R42H/S133A/S149N/S66Y/V115G/V209L/W38E); details: for IC50: read-out: Binding capacity/IC50 (nM) DRB1*04:05
[5] = target: T1, HLA-DP DPA1*01:03/DPB1*20:01 (Homo sapiens, UniProt P04440+P20036, A65V/A84D/A85E/E86D/F38Y/G113D/G114E/G40L/I94L/L37V/M116V/P115A/R125K/T199I); details: for IC50: read-out: Binding capacity/IC50 (nM) DPA1*01:03 DPB1*20:01
T1 sequence (P20036 29-260): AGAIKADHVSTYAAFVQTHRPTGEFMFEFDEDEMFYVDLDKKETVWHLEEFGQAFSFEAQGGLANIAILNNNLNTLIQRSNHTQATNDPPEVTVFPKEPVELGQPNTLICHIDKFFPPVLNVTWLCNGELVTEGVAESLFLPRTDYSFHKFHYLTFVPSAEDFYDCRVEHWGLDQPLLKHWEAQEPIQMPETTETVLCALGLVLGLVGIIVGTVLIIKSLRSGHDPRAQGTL
T1 sequence (P04440 30-258 L37V/F38Y/G40L/A65V/A84D/A85E/E86D/I94L/G113D/G114E/P115A/M116V/R125K/T199I/V234M): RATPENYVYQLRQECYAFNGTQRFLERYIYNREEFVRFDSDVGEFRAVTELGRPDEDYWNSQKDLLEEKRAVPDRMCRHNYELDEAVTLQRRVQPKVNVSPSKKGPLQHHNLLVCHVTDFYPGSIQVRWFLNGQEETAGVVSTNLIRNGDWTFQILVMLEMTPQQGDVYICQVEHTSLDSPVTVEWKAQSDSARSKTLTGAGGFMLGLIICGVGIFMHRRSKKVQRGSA

[6] = target: T2, HLA-DP DPA1*02:01/DPB1*14:01 (Homo sapiens, UniProt P04440+P20036, A65V/A84D/A85E/E86D/F191V/F38H/G113D/G114E/G40L/I94L/K142R/L158P/L37V/M105V/M116V/M62Q/P115A/Q81R/R125K/T114A/T199I/T259P); details: for IC50: read-out: Binding capacity/IC50 (nM) DPA1*02:01 DPB1*14:01
T2 sequence (P20036 29-260 A42M/M62Q/Q81R/T114A/K142R/L158P/F191V/T259P): T1 sequence (P20036 29-260) with A14M, M34Q, Q53R, T86A, K114R, L130P, F163V, T231P
T2 sequence (P04440 30-258 L37V/F38H/G40L/A65V/A84D/A85E/E86D/I94L/M105V/G113D/G114E/P115A/M116V/R125K/T199I/R223Q): T1 sequence (P04440 30-258 L37V/F38Y/G40L/A65V/A84D/A85E/E86D/I94L/G113D/G114E/P115A/M116V/R125K/T199I/V234M) with Y9H, M76V, R194Q, M205V

[7] = target: T3, HLA-DP DPA1*02:01/DPB1*05:01 (Homo sapiens, UniProt P04440+P20036, A65V/A84E/F191V/F64L/G113D/G114E/K142R/L158P/M116V/M62Q/P115A/Q81R/R125K/T114A/T199I/T259P/V234M); details: for IC50: read-out: Binding capacity/IC50 (nM) DPA1*02:01 DPB1*05:01
T3 sequence (P20036 29-260 A42M/M62Q/Q81R/T114A/K142R/L158P/F191V/T259P): T1 sequence (P20036 29-260) with A14M, M34Q, Q53R, T86A, K114R, L130P, F163V, T231P
T3 sequence (P04440 30-258 F64L/A65V/A84E/G113D/G114E/P115A/M116V/R125K/T199I/V234M): T1 sequence (P04440 30-258 L37V/F38Y/G40L/A65V/A84D/A85E/E86D/I94L/G113D/G114E/P115A/M116V/R125K/T199I/V234M) with V8L, Y9F, L11G, F35L, D55E, E56A, D57E, L65I

[8] = target: HLA-DR DRB1*16:02 (Homo sapiens, UniProt P01903+P01911, A100R/F76Y/I96L/Q99D/V115G); details: for IC50: read-out: Binding capacity/IC50 (nM) DRB1*16:02
[9] = target: HLA-DR DRB3*02:02 (Homo sapiens, UniProt P01903+P79483, A212P/D57E/F66Y/L67A/R103Q/R218S/R40L/S89Y/T80R/V86D/Y55F/Y59H); details: for IC50: read-out: Binding capacity/IC50 (nM) DRB3*02:02
[10] = target: T4, HLA-DP DPA1*01:03/DPB1*02:01 (Homo sapiens, UniProt P04440+P20036, A65V/A84D/A85E/K98E); details: for IC50: read-out: Binding capacity/IC50 (nM) DPA1*01:03 DPB1*02:01
T4 sequence (P20036 29-260): T1 sequence (P20036 29-260)
T4 sequence (P04440 30-258 A65V/A84D/A85E/K98E): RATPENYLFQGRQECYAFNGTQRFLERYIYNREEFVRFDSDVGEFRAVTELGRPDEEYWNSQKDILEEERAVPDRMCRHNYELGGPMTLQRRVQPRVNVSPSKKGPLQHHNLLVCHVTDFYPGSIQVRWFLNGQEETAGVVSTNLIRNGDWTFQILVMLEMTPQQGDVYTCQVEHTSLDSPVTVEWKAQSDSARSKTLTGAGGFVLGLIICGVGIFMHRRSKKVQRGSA

[11] = target: HLA-DR DRB5*01:01 (Homo sapiens, UniProt P01903+Q30154); details: for IC50: read-out: Binding capacity/IC50 (nM) DRB5*01:01

Chain of HLA-DR DRB1*11:01 (P01903 26-254 limits assumed, other chains not shown): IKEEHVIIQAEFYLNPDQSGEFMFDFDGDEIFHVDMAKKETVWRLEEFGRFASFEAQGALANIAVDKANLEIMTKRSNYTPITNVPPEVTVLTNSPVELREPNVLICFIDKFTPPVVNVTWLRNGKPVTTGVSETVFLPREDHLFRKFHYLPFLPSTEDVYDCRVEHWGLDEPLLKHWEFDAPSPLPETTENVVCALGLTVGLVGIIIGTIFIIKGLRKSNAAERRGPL
Chain of HLA-DR DRB3*02:02 (P01903 26-254 limits assumed): as the sequence (P01903 26-254 limits assumed, other chains not shown) above
Chain of HLA-DR DRB3*02:02 (P79483 30-266 R40L/Y55F/D57E/Y59H/F66Y/L67A/T80R/V86D/S89Y/R103Q/A212P/R218S limits assumed): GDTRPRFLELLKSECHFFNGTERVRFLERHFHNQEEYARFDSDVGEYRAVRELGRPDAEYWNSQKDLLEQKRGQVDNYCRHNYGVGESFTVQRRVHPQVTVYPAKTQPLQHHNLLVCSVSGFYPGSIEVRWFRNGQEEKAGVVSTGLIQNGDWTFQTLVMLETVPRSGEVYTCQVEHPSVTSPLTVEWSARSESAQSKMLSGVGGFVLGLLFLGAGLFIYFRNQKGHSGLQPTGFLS

| Compound | IC50 [1] | IC50 [3] | IC50 [4] | IC50 [5] | IC50 [6] | IC50 [8] | IC50 [9] | IC50 [10] | IC50 [2] | IC50 [7] | IC50 [11] | pIC50 [6] | pIC50 [9] | other results |
| --- | --- | --- | --- | --- | --- | --- | --- | --- | --- | --- | --- | --- | --- | --- |
| NYPIVQNLQGQMVHQAISPR-NH2 [p17(131-132)/p24(1-18)] | 1130 nM | 940 nM | 428 nM | 952 nM | 2990 nM | 68 nM | 2880 nM | 55 nM |  |  |  |  |  | pIC50 [2]: 6.29; pIC50 [7]: 5.60 |
| CC[C@H](C)[C@H](NC(=O)[C@H](CCCCN)NC(=O)[C@H](CCC(N)=O)NC(=O)[C@@H](NC(=O)[C@H](C)NC(=O)[C@H](CCC(=O)O)NC(=O)[C@@H](N)[C@@H](C)O)C(C)C)C(=O)N[C@@H](C)C(=O)N[C@H](C(=O)N[C@@H](CCC(=O)O)C(=O)N[C@@H](CO)C(=O)N[C@H](C(=O)N[C@H](C(=O)N[C@H](C(=O)N[C@@H](Cc1c[nH]c2ccccc12)C(=O)NCC(=O)N[C@@H](CCCCN)C(=O)N[C@H](C(=O)N1CCC[C@H]1C(=O)N[C@@H](CCCCN)C(=O)N[C@@H](Cc1ccccc1)C(=O)N[C@@H](CCCNC(=N)N)C(=O)N[C@@H](CC(C)C)C(N)=O)[C@@H](C)O)[C@@H](C)CC)C(C)C)[C@@H](C)CC)[C@@H](C)O [RT(369-391)] | 329 nM | 471 nM | 2630 nM | 972 nM | 78 nM | 2130 nM | 8840 nM | 2210 nM | 6230 nM | 154 nM | 68 nM |  |  |  |
| CSCC[C@H](NC(=O)[C@H](CCCCN)NC(=O)[C@H](C)NC(=O)[C@H](Cc1ccc(O)cc1)NC(=O)[C@H](CCCCN)NC(=O)CNC(=O)[C@@H](NC(=O)[C@H](CCCCN)NC(=O)[C@H](CC(C)C)NC(=O)[C@H](CC(N)=O)NC(=O)[C@H](CCCCN)NC(=O)[C@H](Cc1ccccc1)NC(=O)[C@@H]1CCCN1C(=O)[C@H](CCC(=O)O)NC(=O)[C@@H](N)CCC(N)=O)[C@@H](C)O)C(N)=O [RT(343-357)] |  |  |  | 2790 nM |  |  |  | 115 nM | 5610 nM | 1340 nM |  | 4.82 | 5.06 | pIC50 [1]: 6.37; pIC50 [3]: 6.62; pIC50 [4]: 6.56; pIC50 [11]: 8.80; pIC50 [8]: 6.33 |
| DEELLKAVRIIKILYQSNP-NH2 [rev(9-27)] | 2120 nM | 66 nM | 64 nM | 202 nM | 710 nM | 74 nM | 4.4 nM |  | 978 nM | 370 nM |  |  |  | pIC50 [10]: 8.15 |
| LNKIVRMYSPVSILDI-NH2 [p24(138-153)] | 79 nM |  | 49 nM | 3 nM | 16 nM |  |  |  |  | 220 nM |  |  |  | pIC50 [10]: 6.45 |
| YAKMRSAHTNDVKQL-NH2 [RT(354-368)] | 1760 nM | 4840 nM | 926 nM | 202 nM |  | 58 nM | 2850 nM | 687 nM |  | 2190 nM | 80 nM | 6.04 |  |  |
| CC[C@H](C)[C@H](NC(=O)CNC(=O)[C@H](CCCCN)NC(=O)[C@H](Cc1c[nH]cn1)NC(=O)[C@H](C)NC(=O)[C@@H]1CCCN1C(=O)[C@@H](NC(=O)[C@H](Cc1c[nH]c2ccccc12)NC(=O)[C@H](CO)NC(=O)[C@H](CC(C)C)NC(=O)[C@H](Cc1ccc(O)cc1)NC(=O)[C@@H](NC(=O)[C@H](CCCCN)NC(=O)[C@H](CCC(=O)O)NC(=O)[C@@H](N)CCCCN)C(C)C)C(C)C)C(=O)NCC(=O)NCC(=O)N[C@@H](CC(N)=O)C(=O)N[C@@H](CCC(=O)O)C(N)=O [RT(528-546)] | 3150 nM | 2100 nM | 41 nM |  |  |  | 82 nM | 45 nM |  | 3560 nM | 16 nM | 5.31 |  | pIC50 [2]: 6.24; pIC50 [5]: 8.22 |
| VGSLQYLALTALITPKK-NH2 [vif(142-158)] |  |  |  |  |  |  |  | 76 nM | 942 nM | 20 nM |  | 7.15 | 6.24 | pIC50 [1]: 7.32; pIC50 [3]: 5.78; pIC50 [4]: 8.64; pIC50 [5]: 6.58; pIC50 [11]: 8.62 |
| IVALIIAIVVWTIV-NH2 [vpu(13-26)] | 12700 nM | 12700 nM | 14900 nM | 5810 nM | > 30000 nM | 4360 nM |  | 29900 nM |  | > 30000 nM | > 30000 nM |  | < 4.52 |  |
| EAVRHFPRPWLHGL-NH2 [vpr(29-42)] |  |  |  |  |  |  |  | 2140 nM |  | 8450 nM | 731 nM | 5.11 | 5.02 | pIC50 [1]: < 4.52; pIC50 [2]: 5.10; pIC50 [3]: < 4.52; pIC50 [5]: 7.51; pIC50 [8]: 6.44 |
| CC[C@H](C)[C@H](NC(=O)[C@H](Cc1ccc(O)cc1)NC(=O)CNC(=O)[C@H](CO)NC(=O)[C@H](C)NC(=O)[C@@H](NC(=O)[C@H](Cc1c[nH]cn1)NC(=O)[C@@H](NC(=O)[C@H](C)NC(=O)[C@@H](NC(=O)[C@H](CC(C)C)NC(=O)[C@@H](NC(=O)[C@@H](NC(=O)[C@H](CCCCN)NC(=O)CNC(=O)[C@@H](N)CCC(=O)O)[C@@H](C)CC)[C@@H](C)CC)C(C)C)C(C)C)C(C)C)C(=O)N[C@@H](CCC(=O)O)C(N)=O [integrase(69-85)] |  | 2940 nM | 430 nM | 470 nM | 1370 nM | 167 nM | 7190 nM | 4.5 nM | 624 nM | 2710 nM | 523 nM |  |  |  |
